In US8202856B2 (Merck Serono SA, priority 2007, dated 2012):

Assays:
[1] = target: S1P1 receptor (Homo sapiens, UniProt P21453); assay: 35S-GTPγS binding, membranes from CHO cells expressing S1P1; assay type: biochemical; details: CHO cell membranes expressing S1P1
Summary of the method: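 Membranes (1–10 μg) from CHO cells expressing the receptor were incubated with compound in 20 mM HEPES pH 7.4, 10 mM MgCl2, 140 mM NaCl, 1.7 μM GDP, saponin and 0.2% BSA. [35S]GTPγS (added at 1.5 nM) was then bound for 60 min at 30 °C. Membrane-bound radioactivity, averaged over triplicates, is expressed relative to S1P activation (n=2).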

[2] = target: S1P3 receptor (Homo sapiens, UniProt Q99500); assay: 35S-GTPγS binding, membranes from CHO cells expressing S1P3; assay type: biochemical; details: CHO cell membranes expressing S1P3
Description: Receptor binding assay: Membranes were prepared from CHO cells expressing S1P1 or S1P3 for use in ligand and 35S-GTPTS binding studies. Cells were suspended in 50 mM TRIS, pH 7.4, 2 mM EDTA, 250 mM Sucrose (buffer A) and 1× Complete protease inhibitor cocktail (Roche), and disrupted at 4° C. by nitrogen decompression using a cell disruption bomb (Parr Instrument). Following centrifugation at 1000 RPM for 10 min at 4° C., the supernatant was suspended in buffer A and centrifuged again at 19000 RPM for 60 min at 4° C. The pellet was then suspended in 10 mM HEPES, pH 7.4, 1 mM EDTA, 250 mM Sucrose (Buffer B), and 1× Complete EDTA-free protease inhibitor cocktail and homogenized using a potter. Membranes were flash frozen in liquid nitrogen and stored at −80° C. [33P]sphingosine 1-phosphate (3000 Ci/mmol; American Radiolabeled Chemicals, Inc.) was added to test compounds in DMSO. Membranes and WGA SPA beads (GE Healthcare) were added to give a final volume of 100 μl in 96-well plates with assay concentrations of […] [33P]sphingosine 1-phosphate (respectively for S1P1 or S1P3), 50 mM HEPES, pH 7.5, 5 mM MgCl2, 100 mM NaCl, 0.4% fatty acid-free BSA, 1-5 μg/well of proteins and 100 μg/well of WGA SPA beads. Binding was performed for 60 min at room temperature on a shaker and bound radioactivity was measured on a PerkinElmer 1450 MicroBeta counter. Specific binding was calculated by subtracting remaining radioactivity in the presence of 1000-fold excess of unlabeled S1P. Binding data were analyzed using the GraphPad Prism program.
Measurements of ^35S-GTPγS Binding: Membranes (1 to 10 μg protein) prepared as described above, were incubated in 96-well Scintiplates (PerkinElmer) with test compounds diluted in DMSO, in 180 μl of 20 mM HEPES, pH 7.4, 10 mM MgCl2, 2 μg/well Saponin, 0.2% fatty acid free BSA (Assay buffer), 140 mM NaCl and 1.7 μM GDP. The assay was initiated with the addition of 20 μl of 1.5 nM [35S]-GTPγS (1100 Ci/mmol; GE Healthcare) in assay buffer. After 60 min incubation at 30° C. on a shaker, plates were centrifuged for 10 min at 2000 RPM. Supernatant was discarded and membrane bound radioactivity was measured on a PerkinElmer 1450 MicroBeta counter. Triplicate samples were averaged and expressed as response relative to S1P activation in absence of compound (n=2).

Chain of S1P3 receptor (Q99500 whole entry): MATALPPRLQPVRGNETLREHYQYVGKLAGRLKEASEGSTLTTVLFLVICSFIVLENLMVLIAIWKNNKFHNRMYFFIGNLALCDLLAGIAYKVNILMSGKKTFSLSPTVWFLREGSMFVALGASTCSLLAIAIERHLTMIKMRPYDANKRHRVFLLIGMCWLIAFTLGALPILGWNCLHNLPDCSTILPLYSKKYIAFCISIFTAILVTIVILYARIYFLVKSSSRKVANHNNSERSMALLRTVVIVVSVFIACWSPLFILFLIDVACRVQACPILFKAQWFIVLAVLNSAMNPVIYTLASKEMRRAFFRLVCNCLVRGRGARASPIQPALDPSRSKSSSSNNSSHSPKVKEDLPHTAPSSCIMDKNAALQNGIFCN
Chain of S1P1 receptor (P21453 whole entry): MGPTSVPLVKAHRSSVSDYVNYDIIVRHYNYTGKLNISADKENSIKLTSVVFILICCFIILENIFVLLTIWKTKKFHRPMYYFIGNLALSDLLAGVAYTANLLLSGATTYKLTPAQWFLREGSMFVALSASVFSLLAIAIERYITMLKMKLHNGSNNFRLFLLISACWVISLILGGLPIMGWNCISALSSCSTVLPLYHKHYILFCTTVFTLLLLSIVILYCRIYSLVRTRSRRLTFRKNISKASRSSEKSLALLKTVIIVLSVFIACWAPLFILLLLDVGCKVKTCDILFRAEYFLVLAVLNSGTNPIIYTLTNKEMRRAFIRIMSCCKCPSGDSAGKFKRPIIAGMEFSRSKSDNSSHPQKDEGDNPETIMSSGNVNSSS

Row | Structure (SMILES) | EC50 [1] [µM] | EC50 [2] [µM]
1 | Fc1ccc(F)c(-c2noc(-c3nnn(-c4ccccc4F)c3C3CCCC3)n2)c1 [Example 77, 5-[5-cyclopentyl-1-(2-fluorophenyl)-1H-1,2,3-triazol-4-yl]-3-(2,5-difluorophenyl)-1,2,4-oxadiazole] | 0.206 | 0.033
2 | O=C(O)CCNCc1ccc(-c2noc(-c3nnn(-c4ccccc4F)c3-c3ccncc3)n2)cc1 [Example 127, N-(4-{5-[1-(2-fluorophenyl)-5-pyridin-4-yl-1H-1,2,3-triazol-4-yl]-1,2,4-oxadiazol-3-yl}benzyl)-beta-alanine] | 0.001 | 0.318
3 | Fc1ccc(F)c(-c2noc(-c3nnn(-c4ccccc4F)c3-c3ccccn3)n2)c1 [Example 28, 2-[4-[3-(2,5-Difluorophenyl)-1,2,4-oxadiazole-5-yl]-1-(2-fluorophenyl)-1H-1,2,3-triazole-5-yl]pyridine] | 0.044 | 7.25
4 | Fc1ccc(-c2noc(-c3nnn(-c4ccccc4F)c3-c3ccccc3)n2)c(F)c1 [Example 11, 3-(2,4-Difluorophenyl)-5-[1-(2-fluorophenyl)-5-phenyl-1H-1,2,3-triazole-4-yl]-1,2,4-oxadiazole] | 0.053 | > 30
5 | O=C(O)c1ccc(-c2noc(-c3nnn(-c4ccccc4F)c3-c3ccccc3)n2)c(F)c1 [Example 33, 3-Fluoro-4-{5-[1-(2-fluorophenyl)-5-phenyl-1H-1,2,3-triazole-4-yl]-1,2,4-oxadiazole-3-yl}benzoic acid] | 0.501 | > 20
6 | O=C(O)C1CCN(Cc2ccc(-c3noc(-c4nnn(-c5ccccc5F)c4-c4ccncc4)n3)cc2)CC1 [Example 128, 1-(4-{5-[1-(2-fluorophenyl)-5-pyridin-4-yl-1H-1,2,3-triazol-4-yl]-1,2,4-oxadiazol-3-yl}benzyl)piperidine-4-carboxylic acid] | 0.008 | 2.53
7 | Fc1cc(F)cc(-c2noc(-c3nnn(-c4ccccc4F)c3-c3ccncc3)n2)c1 [Example 102, 4-[4-[3-(3,5-difluorophenyl)-1,2,4-oxadiazol-5-yl]-1-(2-fluorophenyl)-1H-1,2,3-triazol-5-yl]pyridine] | 0.006 | 0.149
